Laboratory results reported in patent publication US20060088886A1, “Topiramate analogs” (priority 2004, published 2006).

Test system: anti-topiramate antibodies prepared with immunogen (18)
Test: ELISA binding inhibition study (avidity), free topiramate vs coated antigens
Set-up: species or system Rabbit
Details: for Abs Antigen 16 / Abs Antigen 19 / Abs Antigen 20: 405 nm
Method: ELISA plates for use in an ELISA assay are prepared in order to study the polyclonal antibody prepared as described in Example 21. As such, various topiramate antigens (16), (19), and (20) are coated on different ELISA plates before being subjected to the anti-topiramate antibody and competing free topiramate. More particularly, the topiramate antigens are diluted in coating buffer, and then added to the wells of ELISA plate. After the ELISA plate is inculcated for 60 min at 37° C., the solvent in the coating buffer is decanted and a blocking buffer is added to the plate. The plate is incubated again for 60 min at 37° C., and the solvent in the blocking buffer is decanted from the plate. The ELISA plate is then stored with the blocking agent in the wells at 2-8° C. for up to 1 week. The avidity of the anti-topiramate antibodies prepared with immunogen (17) for topirainate analogs are determined by a binding inhibition study. As such, samples are prepared in 1 mL of PBS at pH 7.4 with 0.1% BSA. A composition having 30% Bmax titer or 50% Bmax titer is used to divide the obtained titer value into approximately half the titer value. Using 30% Bmax, an antibody titer of 1:10000 is diluted to 1:5000 during the sample preparation stage. About 50 μL of topiramate at different concentrations or calibrator values, (0, 2, 4, 8, 16, 32 μg/ml) are then applied to a plate as prepared in accordance with Example 22. About 50 μL of the diluted antibody is dispensed into the plate, and the compositions in the plate are mixed for 1 min on a horizontal plate shaker. The plate is characterized by a first row not containing topiramate or anti-topiramate antibody, wherein the first row is used as a negative control. A second row not containing topiramate is used as the positive control. The plate is incubated for 60 min, and washed three times with 250 μL of PBS at pH 7.4 with 0.05% tween. About 125 μL of a diluted second antibody conjugate such as antigens (16), (19), or (20), in PBS at pH 7.4 is added to each well of the plate. Titer is determined experimentally by the plate being incubated for 60 min at 37° C. and washed 3 times with 250 μL PBS, pH 7.4 with 0.05% tween. Subsequently, about 125 μL of ABTS substrate is added to each well of the plate and incubated for 20 min. The avidity of the anti-topiramate antibodies prepared with immunogen (18) for topiramate analogs is determined by a binding inhibition study performed with an experimental protocol substantially similar as in Example 24.

[1] = Rabbit No. 5490, topiramate 2 μg/ml
[2] = Rabbit No. 5490, topiramate 4 μg/ml
[3] = Rabbit No. 5490, topiramate 8 μg/ml
[4] = Rabbit No. 5490, topiramate 16 μg/ml
[5] = Rabbit No. 5490, topiramate 32 μg/ml
[6] = Rabbit No. 5495, topiramate 2 μg/ml
[7] = Rabbit No. 5495, topiramate 4 μg/ml
[8] = Rabbit No. 5495, topiramate 8 μg/ml
[9] = Rabbit No. 5495, topiramate 16 μg/ml
[10] = Rabbit No. 5495, topiramate 32 μg/ml

SMILES: CC1(C)O[C@@H]2[C@@H](CO[C@@]3(COS(N)(=O)=O)OC(C)(C)O[C@@H]23)O1 [Topiramate, 2,3:4,5-di-O-isopropylidene-beta-D-fructopyranose sulfamate]
- B/Bo Antigen 16 [1]: 0.35
- B/Bo Antigen 19 [1]: 0.18
- B/Bo Antigen 20 [1]: 0.63
- Abs Antigen 16 [1]: 0.25
- Abs Antigen 19 [1]: 0.10
- Abs Antigen 20 [1]: 0.25
- B/Bo Antigen 16 [2]: 0.28
- B/Bo Antigen 19 [2]: 0.10
- B/Bo Antigen 20 [2]: 0.60
- Abs Antigen 16 [2]: 0.20
- Abs Antigen 19 [2]: 0.06
- Abs Antigen 20 [2]: 0.24
- B/Bo Antigen 16 [3]: 0.21
- B/Bo Antigen 19 [3]: 0.07
- B/Bo Antigen 20 [3]: 0.55
- Abs Antigen 16 [3]: 0.15
- Abs Antigen 19 [3]: 0.04
- Abs Antigen 20 [3]: 0.22
- B/Bo Antigen 16 [4]: 0.17
- B/Bo Antigen 19 [4]: 0.06
- B/Bo Antigen 20 [4]: 0.53
- Abs Antigen 16 [4]: 0.12
- Abs Antigen 19 [4]: 0.03
- Abs Antigen 20 [4]: 0.21
- B/Bo Antigen 16 [5]: 0.14
- B/Bo Antigen 19 [5]: 0.04
- B/Bo Antigen 20 [5]: 0.50
- Abs Antigen 16 [5]: 0.10
- Abs Antigen 19 [5]: 0.02
- Abs Antigen 20 [5]: 0.20
- B/Bo Antigen 16 [6]: 0.35
- B/Bo Antigen 19 [6]: 0.20
- B/Bo Antigen 20 [6]: 0.53
- Abs Antigen 16 [6]: 0.25
- Abs Antigen 19 [6]: 0.13
- Abs Antigen 20 [6]: 0.18
- B/Bo Antigen 16 [7]: 0.39
- B/Bo Antigen 19 [7]: 0.12
- B/Bo Antigen 20 [7]: 0.50
- Abs Antigen 16 [7]: 0.28
- Abs Antigen 19 [7]: 0.08
- Abs Antigen 20 [7]: 0.17
- B/Bo Antigen 16 [8]: 0.21
- B/Bo Antigen 19 [8]: 0.08
- B/Bo Antigen 20 [8]: 0.47
- Abs Antigen 16 [8]: 0.15
- Abs Antigen 19 [8]: 0.05
- Abs Antigen 20 [8]: 0.16
- B/Bo Antigen 16 [9]: 0.17
- B/Bo Antigen 19 [9]: 0.06
- B/Bo Antigen 20 [9]: 0.41
- Abs Antigen 16 [9]: 0.12
- Abs Antigen 19 [9]: 0.04
- Abs Antigen 20 [9]: 0.14
- B/Bo Antigen 16 [10]: 0.14
- B/Bo Antigen 19 [10]: 0.03
- B/Bo Antigen 20 [10]: 0.32
- Abs Antigen 16 [10]: 0.10
- Abs Antigen 19 [10]: 0.02
- Abs Antigen 20 [10]: 0.11
